Experimental data from US20230331777A1, “NOVEL PEPTOID COMPOUNDS THAT BIND TO CELL RECEPTOR ACE2 AND PREVENT VIRUS ENTRY INTO CELLS” (priority 2020, published 2023).
Starred links: 1 amine or outer side, 2 acyl side, 3 side chain; linkers in the order of their positions; H or OH if unused. Positions of bridges follow the written chain, without caps; N, C: chain ends. Non-standard residues stand in square brackets, D forms with d. Residues, ends and D or L forms follow the SMILES beside them. Chains are numbered I, II in the order given. N(4-MeOBn)Gly = COc1ccc(CNCC(=O)O)cc1; N((CH2)3OiPr)Gly = CC(C)OCCCNCC(=O)O; X1 = CC(c1ccccc1)N(CC(=O)[*:2])[*:1]; NAllylGly = C=CCNCC(=O)O; Nleu = CC(C)CNCC(=O)O; Nme = COCCNCC(=O)O

Tests used:
ACE2 protein [1] = target: T1, ACE2 protein (Homo sapiens, UniProt Q9BYF1); assay: ACE2 enzymatic activity, Mca-YVADAPK(Dnp) fluorescence assay; assay type: biochemical; settings: up to 10 µM peptoid; 10 µM Mca-YVADAPK(Dnp), 37° C.
Protocol: (§1) Assays were run at 37° C. in an ACE2 reaction buffer containing 10 µM Mca-YVADAPK(Dnp), in a total volume of 100 µl. Fluorescence emission at 405 nm, after excitation at 320 nm, was measured in a microplate reader. Cleavage of the substrate Mca-YVADAPK(Dnp) by ACE2 enzyme produces fluorescence. The strength of the fluorescence indicates the ACE2 enzymatic activity.
ACE2 is an enzyme that lowers blood pressure by catalyzing the hydrolysis of angiotensin II. […] Applicant assessed the effects of ACE2P1D1 and ACE2P2D1 on ACE2 enzyme activity on recombinant ACE2 protein.

HEK293T cells = assay: WST-1 cell viability assay; assay type: cell-based, human; settings: various concentrations, 48 hours
Protocol: (§2) MCF-7 and HEK293T cells were treated with various concentrations of ACE2P1D1 (FIG. 12A) or ACE2P2D1 (FIG. 12B) for 48 hours. Cell viability was measured by a WST-1 assay.
(§3) To assess whether the peptoids are toxic to human cells, Applicant performed the WST-1 assay.

MCF-7 cells = assay: WST-1 cell viability assay; assay type: cell-based, human; settings: various concentrations, 48 hours
Protocol: as §2, §3

ACE2 protein [2] = target: T1, ACE2 protein; assay: Protein Thermal Shift assay; assay type: binding; settings: 10 µM peptoid
Protocol: FIGS. 8A-D illustrate that ACE2P1 and ACE2P2 interact directly with ACE2. FIG. 8A provides experimental results from an in vitro pulldown assay for ACE2P1 and ACE2P2. […] The thermal shift assay was carried out on a QuantStudio 3 Real-Time PCR System.
Next, Applicant created the dimers of ACE2P1 and ACE2P2 (FIG. 8B) and performed thermal shift assays using recombinant ACE2 proteins. Thermal shift assay is routinely used in drug discovery to identify protein-ligand interactions. The Applied Biosystems™ Protein Thermal Shift™ assay measures protein thermal stability using a fluorescent protein-binding dye. […] The protein is mixed with the dye and heated. As it unfolds or melts, hydrophobic parts of the protein are exposed and bind to the dye, resulting in fluorescence emission detected by the qPCR system. Binding of a ligand to the protein changes the stability of the protein, resulting in a change in fluorescence intensity.

[3] = target: T2, ACE2 protein levels on cell surface (Homo sapiens, UniProt Q9BYF1); assay: ACE2 surface expression by flow cytometry; assay type: cell-based; settings: H1299 cells, 48 hours
T2 construct: endogenous in cells; host or cells: H1299 human lung cancer cells
Protocol: H1299 cells were treated with ACE2P1D1 or ACE2P2D1 for 48 hours. ACE2 surface expression was determined by flow cytometry analysis.
Next, Applicant determined whether or not the peptoids in this Example can decrease ACE2 levels on a cell surface.

SARS-CoV-2 pseudovirus = assay type: cell-based, human H1299 cells
[4] = target: SARS-CoV-2 spike protein binding to ACE2 (Homo sapiens, UniProt Q9BYF1); assay: GST pull-down assay of spike protein-ACE2 interaction; settings: premixed with ACE2 for 30 minutes; ACE2 detected by western blot
ACE2 protein [5] = target: T1, ACE2 protein; assay: ACE2 expression by western blot; assay type: cell-based; design: endogenous in cells; host or cells: MCF-7 and Caco-2 cells; settings: MCF-7 and Caco-2 cells, various doses, 48 hours
Protocol: MCF-7 and Caco-2 cells were treated with various concentrations of ACE2P1D1 or ACE2P2D1 for 48 hours. ACE2 expression was determined by western blot analysis.
As ACE2 is important in blood pressure regulation, Applicant assessed whether the peptoids can decrease ACE2 expression in human cells.

ACE2 in Caco-2 cells = target: T3, ACE2 in Caco-2 cells (Homo sapiens, UniProt Q9BYF1); assay: ACE2 enzymatic activity in cell homogenates; assay type: biochemical; settings: Caco-2 cell homogenates, captopril 10 µM
T3 construct: endogenous in cells; host or cells: Caco-2 cells
Protocol: Assays were run at 37° C. in ACE2 reaction buffer containing 10 µM Mca-YVADAPK(Dnp), in a total volume of 100 µl. Fluorescence emission at 405 nm, after excitation at 320 nm, was measured in a microplate reader. Cleavage of the substrate Mca-YVADAPK(Dnp) by ACE2 enzyme produces fluorescence. The strength of the fluorescence indicates the ACE2 enzymatic activity.
(§4) To measure ACE2 activity in cells, cell homogenates were used. To prevent hydrolysis of the substrate by a range of nonmetalloprotease enzymes from the cells, cOmplete™ Protease Inhibitor Cocktail (Roche/Sigma) were added to the cell homogenates. To eliminate the effects of ACE on the substrate, ACE inhibitor captopril (10 µM) was added to the assay.

[6] = target: T4, ACE2 in human H1299 cells (Homo sapiens, UniProt Q9BYF1); assay: ACE2 enzymatic activity in cell homogenates; assay type: biochemical; settings: captopril 10 µM
T4 construct: endogenous in cells; host or cells: H1299 human lung cancer cells
Protocol: as §1, §4

ACE2 in MCF-7 cells = target: T5, ACE2 in MCF-7 cells (Homo sapiens, UniProt Q9BYF1); assay: ACE2 enzymatic activity in cell homogenates; assay type: biochemical; settings: MCF-7 cell homogenates, captopril 10 µM
T5 construct: endogenous in cells; host or cells: MCF-7 cells
Protocol: as §1, §4

[7] = test system: ACE2 expressing MCF-7 cells; assay: on-bead cell binding of resynthesized peptoids (OBTC two-color); assay type: cell-based, human; settings: peptoid on tentagel bead; ACE2+ red stained, ACE2- green stained MCF-7 cells
Protocol: FIG. 6 provides experimental results illustrating that on-bead peptoids ACE2P1 and ACE2P2 bind to human ACE2 positive cells. The compounds ACE2P1 and ACE2P2 were resynthesized on the tentagel bead and incubated with ACE2 expressing MCF-7 cells (red stained) and ACE2 negative MCF-7 cells (green stained) individually as well as 1:1 mixture of red and green cells.
Applicant resynthesized the identified ACE2P1 and ACE2P2 peptoids on-bead and introduced human ACE2^+ (red stained) and ACE2^- (green stained) MCF-7 cells separately to these two peptoid carrying beads.

ACE2 protein [8] = target: T1, ACE2 protein; assay: in vitro pulldown assay with peptoid conjugated beads; assay type: binding; settings: 4° C. overnight, western blotting
Protocol: To confirm a direct interaction between the peptoids and ACE2, Applicant performed in vitro pulldown assays. Recombinant human ACE2 protein was incubated with ACE2P1 or ACE2P2 conjugated beads at 4° C. overnight. The beads were then washed with PBS buffer for 3 times, and the binding proteins were eluted with 1% SDS. The yielded lysates were then applied onto 10% SDS-PAGE gel and subjected to western blotting (FIG. 8A).

SARS-CoV-2 spike protein binding to ACE2, sequence (Q9BYF1 18-740): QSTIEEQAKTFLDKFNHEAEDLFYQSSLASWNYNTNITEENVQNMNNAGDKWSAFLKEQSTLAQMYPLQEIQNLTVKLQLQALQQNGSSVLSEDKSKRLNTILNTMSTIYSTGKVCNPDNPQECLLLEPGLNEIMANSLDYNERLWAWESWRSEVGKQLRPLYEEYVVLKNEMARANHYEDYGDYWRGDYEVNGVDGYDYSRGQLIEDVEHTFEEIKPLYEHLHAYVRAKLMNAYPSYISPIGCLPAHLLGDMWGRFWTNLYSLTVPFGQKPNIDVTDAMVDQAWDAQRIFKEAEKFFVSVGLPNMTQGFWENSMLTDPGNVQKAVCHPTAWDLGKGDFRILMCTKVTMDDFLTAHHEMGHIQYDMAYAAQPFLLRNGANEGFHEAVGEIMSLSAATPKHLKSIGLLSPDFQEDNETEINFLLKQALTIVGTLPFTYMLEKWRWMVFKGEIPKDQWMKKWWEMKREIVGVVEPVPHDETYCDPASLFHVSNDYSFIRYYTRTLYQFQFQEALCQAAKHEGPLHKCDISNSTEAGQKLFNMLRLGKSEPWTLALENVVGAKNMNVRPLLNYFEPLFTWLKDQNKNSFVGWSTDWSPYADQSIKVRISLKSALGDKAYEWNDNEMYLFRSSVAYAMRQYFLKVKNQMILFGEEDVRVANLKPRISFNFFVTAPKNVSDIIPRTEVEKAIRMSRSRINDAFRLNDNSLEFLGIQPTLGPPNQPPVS
T1 sequence (Q9BYF1 18-805): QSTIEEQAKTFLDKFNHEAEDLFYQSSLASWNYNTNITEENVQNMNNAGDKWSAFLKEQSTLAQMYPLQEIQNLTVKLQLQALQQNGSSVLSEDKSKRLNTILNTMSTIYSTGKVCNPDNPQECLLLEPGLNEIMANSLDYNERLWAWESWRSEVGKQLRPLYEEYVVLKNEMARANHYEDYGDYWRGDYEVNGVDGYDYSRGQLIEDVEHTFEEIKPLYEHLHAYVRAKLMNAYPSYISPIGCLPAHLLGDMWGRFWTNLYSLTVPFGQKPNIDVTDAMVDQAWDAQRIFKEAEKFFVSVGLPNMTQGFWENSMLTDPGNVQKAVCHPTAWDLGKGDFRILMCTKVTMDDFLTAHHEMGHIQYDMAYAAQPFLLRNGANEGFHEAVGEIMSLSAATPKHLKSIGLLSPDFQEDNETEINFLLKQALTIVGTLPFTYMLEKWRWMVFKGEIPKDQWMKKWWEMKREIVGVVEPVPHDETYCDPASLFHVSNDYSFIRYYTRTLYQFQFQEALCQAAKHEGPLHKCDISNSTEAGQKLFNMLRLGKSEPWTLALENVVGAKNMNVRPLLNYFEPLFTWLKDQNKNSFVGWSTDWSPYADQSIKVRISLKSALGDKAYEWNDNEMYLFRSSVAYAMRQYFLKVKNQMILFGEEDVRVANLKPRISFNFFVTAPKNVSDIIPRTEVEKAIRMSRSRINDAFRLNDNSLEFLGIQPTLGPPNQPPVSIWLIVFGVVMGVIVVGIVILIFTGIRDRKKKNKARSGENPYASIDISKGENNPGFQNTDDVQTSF
T3 sequence (Q9BYF1 18-805): as above
T5 sequence (Q9BYF1 18-805): as above
T4 sequence (Q9BYF1 18-805): as above
T2 sequence (Q9BYF1 18-805): as above

Structure (SMILES)	ACE2 enzyme activity (ACE2 protein [1])	cell viability (HEK293T cells)	cell viability (MCF-7 cells)	change in protein melting temperature (ACE2 protein [2])	ACE2 protein levels on cell surface [3]	SARS-CoV-2 pseudovirus infection (SARS-CoV-2 pseudovirus)	binding of spike protein to ACE2 [4]	expression levels of ACE2 protein (ACE2 protein [5])	enzymatic activity of ACE2 (ACE2 in Caco-2 cells)	enzymatic activity of ACE2 [6]	enzymatic activity of ACE2 (ACE2 in MCF-7 cells)	binding of peptoid beads to ACE2+ versus ACE2- MCF-7 cells [7]	pull down of ACE2 protein (ACE2 protein [8])
C=CCN(CC(=O)N(CC(=O)NC(CCCCN)C(=O)NC(CCSC)C(=O)NCCCCC(NC(=O)C(CCSC)NC(=O)C(CCCCN)NC(=O)CN(C(=O)CN(CC=C)C(=O)CN(Cc1ccc(OC)cc1)C(=O)CN(C(=O)CN(CCOC)C(=O)CNCC(C)C)C(C)c1ccccc1)C(C)c1ccccc1)C(N)=O)C(C)c1ccccc1)C(=O)CN(Cc1ccc(OC)cc1)C(=O)CN(C(=O)CN(CCOC)C(=O)CNCC(C)C)C(C)c1ccccc1 (stereo not shown) [ACE2P1D1] (I: H-[Nleu][Nme][X1][N(4-MeOBn)Gly][NAllylGly][X1]KMK-NH2 / II: H-[Nleu][Nme][X1][N(4-MeOBn)Gly][NAllylGly][X1]KM; amide I:9-II:C; configuration not given here)	no effects on ACE2 activity	no effects on the viability	no effects on the viability	increase in protein melting temperature	did not decrease the ACE2 protein levels on cell surface	effective in inhibiting SARS-CoV-2 pseudovirus infection	prevented the binding of spike protein to ACE2	did not decrease the expression levels of ACE2 protein	did not affect the enzymatic activity of ACE2	did not affect the enzymatic activity of ACE2	did not affect the enzymatic activity of ACE2	–	–
COCCN(CC(=O)NC(CCCCN)C(=O)NC(CCSC)C(=O)NCCCCC(NC(=O)C(CCSC)NC(=O)C(CCCCN)NC(=O)CN(CCOC)C(=O)CN(CC(C)C)C(=O)CN(CC(C)C)C(=O)CN(CCCOC(C)C)C(=O)CN(Cc1ccc(OC)cc1)C(=O)CNCc1ccc(OC)cc1)C(N)=O)C(=O)CN(CC(C)C)C(=O)CN(CC(C)C)C(=O)CN(CCCOC(C)C)C(=O)CN(Cc1ccc(OC)cc1)C(=O)CNCc1ccc(OC)cc1 (stereo not shown) [ACE2P2D1] (I: H-[N(4-MeOBn)Gly][N(4-MeOBn)Gly][N((CH2)3OiPr)Gly][Nleu][Nleu][Nme]KMK-NH2 / II: H-[N(4-MeOBn)Gly][N(4-MeOBn)Gly][N((CH2)3OiPr)Gly][Nleu][Nleu][Nme]KM; amide I:9-II:C; configuration not given here)	no effects on ACE2 activity	no effects on the viability	no effects on the viability	increase in protein melting temperature	did not decrease the ACE2 protein levels on cell surface	effective in inhibiting SARS-CoV-2 pseudovirus infection	prevented the binding of spike protein to ACE2	did not decrease the expression levels of ACE2 protein	did not affect the enzymatic activity of ACE2	did not affect the enzymatic activity of ACE2	did not affect the enzymatic activity of ACE2	–	–
C=CCN(CC(=O)N(CC(=O)NC(CCCCN)C(=O)NC(CCSC)C(N)=O)C(C)c1ccccc1)C(=O)CN(Cc1ccc(OC)cc1)C(=O)CN(C(=O)CN(CCOC)C(=O)CNCC(C)C)C(C)c1ccccc1 (stereo not shown) [ACE2P1] (H-[Nleu][Nme][X1][N(4-MeOBn)Gly][NAllylGly][X1]KM-NH2; configuration not given here)	–	–	–	–	–	–	increased the binding of spike protein to ACE2	–	–	–	–	bound only to red stained ACE2^+ cells	able to pull down the ACE2 protein
COCCN(CC(=O)NC(CCCCN)C(=O)NC(CCSC)C(N)=O)C(=O)CN(CC(C)C)C(=O)CN(CC(C)C)C(=O)CN(CCCOC(C)C)C(=O)CN(Cc1ccc(OC)cc1)C(=O)CNCc1ccc(OC)cc1 (stereo not shown) [ACE2P2] (H-[N(4-MeOBn)Gly][N(4-MeOBn)Gly][N((CH2)3OiPr)Gly][Nleu][Nleu][Nme]KM-NH2; configuration not given here)	–	–	–	–	–	–	increased the binding of spike protein to ACE2	–	–	–	–	bound only to red stained ACE2^+ cells	able to pull down the ACE2 protein
